“Also recorded” adds a separate entry of the source. Residues, ends and D or L forms follow the SMILES beside them.
Legend:
[1] = Circular dichroism spectroscopy of polypeptides in phosphate buffered saline; assay type: physicochemical; settings: 1 mg/ml
Experimental: The conformational properties of the polypeptides were investigated to elucidate any secondary structure that might be necessary for polypeptide immunoreaction with human anti-EBNA antibodies. The polypeptides were dissolved at a concentration of 1 mg/ml in phosphate-buffered saline (PBS). Spectra were taken using 1 ml samples in a Cary 61 spectropolarimeter (Cary Instruments, Applied Physics Corp., Monrovia, Calif.) interfaced and automated with a Digital Equipment Corporation 11/02 computer (Digital Equipment Corporation, Maynard, Mass.).

EBNA = assay: Immunoblotting of whole cell extracts with rabbit anti-polypeptide antisera; assay type: binding, Epstein-Barr virus; settings: for Inhibition of recognition of EBNA by anti-P62 serum: anti-P62 serum 1:10 incubated with 40 ug/ml polypeptide for one hour
Experimental: Exemplary receptor molecules containing antibody combining sites of this invention raised in rabbits to the polypeptides shown in Table 1 were studied using the immunoblotting procedures of Towbin, et. al., Proc. Natl. Acad. Sci., U.S.A., 76:4350-4354 (1979) and Billings, et. al., Proc. Natl. Acad. Sci., U.S.A., 80:7104-7108 (1983). Further details are provided in the Materials and Methods section (II).
Extracts of EBNA producing and non-producing (control) cells were prepared to determine if receptor molecules of this invention were useful for diagnosing EBNA expression. Cells from cultures described hereinabove were washed in phosphate-buffered saline (PBS; 150 mM NaCl, 10 mM sodium phosphate, pH 7.4) containing 0.2 mM phenylmethylsulfonyl fluoride, swollen for 5 minutes in reticulocyte standard buffer (RSB; 10 mM NaCl, 10 mM Tris-HCl, pH 7.4, 1.5 mM MgCl2, 0.2 mM phenylmethylsulfonyl fluoride), and lysed by sonication in 3-5 volumes of RBS adjusted to 0.2-0.35 molar (M) NaCl. After 30 minutes on ice, the sonicate was centrifuged at 10,000×g for 15 minutes to remove cellular debris.
Cell extracts obtained above were assayed for EBNA using human sera known to contain anti-EBNA antibodies or exemplary receptor molecules of this invention. Tne extracts were either concentrated by precipitation with 2 volumes of ethanol at -20 degrees C. for about 18 hours, and were then dissolved in sample buffer [SB; 10% glycerol, 2% 2-mercaptoethanol, 1% sodium dodecyl sulfate (SDS), 0.002% bromphenol blue, 40 mM Tris-HCl (pH 7.4)] or diluted 1:6 in sample buffer for SDS-polyacrylamide gel electrophoresis (SDS-PAGE). 7.5% Polyacrylamide gels were cast and run according to the procedure of Laemmli, Nature, […] (1970), applying 50 to 200 micorgrams of total protein per lane. […]
Anti-peptide antibodies bound to EBNA protein were detected by reacting the blots with an indicating means. […]

anti-EBNA antibodies = assay: ELISA with polypeptide as solid phase antigen, detecting anti-polypeptide antibodies in sera; assay type: binding, human; settings: for Average titer of Progressive Systemic Schlerosis (PSS) patients to polypeptide compared with normals: high and low serum dilutions; for Reaction of VCA- sera with polypeptide: panel of 19 VCA- sera; for Reactivity of sera of EBV non-immune donors to polypeptide: panel of 27 EBV non-immune (VCA-) donors; for Number of 91 anti-EBNA positive (ACIF) sera positive against polypeptide: sera at 1:20 dilution; for Antibodies binding to polypeptide before and after EBV-induced infectious mononucleosis: sera of two subjects; for Reaction of sera of clinically normal VCA+ individuals with polypeptide: two serum dilutions
Experimental: A solution containing a substrate for the enzyme label such as hydrogen peroxide for peroxidase and a color-forming dye precursor such as o-phenylenediamine, or p-nitrophenyl phosphate for alkaline phosphatase is thereafter admixed with the solid phase.
(§1) Anti-peptide antibody binding and inhibition studies were carried out by an enzyme-linked immunosorbent assay (ELISA) as described below.
(§2) Briefly, microtiter wells (Costar, #3590, Cambridge, Mass.) were coated with individual polypeptides as antigens by adding 100 microliters (ul) of BBS [10 millimoler (mM) sodium borate (pH 8.3), 150 mM NaCl] containing polypeptide at a concentration of 10 micrograms per milliliter (ug/ml). Contact between the wells and antigen-containing solution was maintained for a predetermined time, typically 15 minutes, and at 20 degrees C., to form an antigen-coated solid phase. The solid and liquid phases were separated and the wells were washed three times with BBS.
Non-specific binding sites were blocked by admixing 200 microliters of 1% bovine serum albumin (BSA) in each well to form another solid-liquid phase admixture, and maintaining that solid-liquid phase admixture for 30 minutes, at 20 degrees C. The phases were separated and excess, unbound BSA was removed by washinq three times with BBS.
[…] Contact between the diluted sera and the antigen-coated solid phase was maintained for a predetermined time such as 1 hour, and at 20 degrees C., for an immunoreactant to form. The solid and liquid phases were separated, and the solid phase; i.e., antigen-coated, immunoreactant-containing wells, was then washed three times with BBS.
The antibodies in human sera that immunoreacted with an adsored polypeptide were detected using an indicating means comprising alkaline phosphatase-conjugated goat anti-human Ig antibody (Tago, Burlington, CA). The antibodies in rabbit sera that immunoreacted with an adsorbed polypeptide were detected using an indicating means comprising alkaline phosphatase-conjugated goat anti-rabbit Ig antibody (Kirkegard & Perry Laboratories, Inc., Gaithersburg, Md.). In either instance, 100 microliters of the indicating antibody diluted 1:300 in BBS were added per well to form a further solid-liquid phase composition. This solidliquid phase composition was maintained for a predetermined time, one hour, for the formation of a reaction product between the human antibodies bound to the solid phase and the indicating means, and at 20 degrees C.

[2] = tested on: rabbit anti-polypeptide antibody to polypeptide P62; assay: Competition ELISA: rabbit anti-polypeptide P62 antibody binding to solid phase P62; settings: antibody first incubated with competing polypeptide
Experimental: as §1, §2
Non-specific binding sites were blocked by admixing 200 microliters of 1% bovine serum albumin (BSA) in each well to form another solid-liquid phase admixture, and maintaining that solid-liquid phase admixture for 30 minutes, at 20 degrees C. […]
The antibodies in human sera that immunoreacted with an adsored polypeptide were detected using an indicating means comprising alkaline phosphatase-conjugated goat anti-human Ig antibody (Tago, Burlington, CA). The antibodies in rabbit sera that immunoreacted with an adsorbed polypeptide were detected using an indicating means comprising alkaline phosphatase-conjugated goat anti-rabbit Ig antibody (Kirkegard & Perry Laboratories, Inc., Gaithersburg, Md.). […]

[3] = serum MV post-mononucleosis, dilution 1:20
[4] = serum MV pre-mononucleosis, dilution 1:20
[5] = serum SB post-mononucleosis, dilution 1:20
[6] = serum SB pre-mononucleosis, dilution 1:20
[7] = serum VCA + Normal 1, dilution 1:20
[8] = serum VCA + Normal 2, dilution 1:20

Row | Structure (SMILES) | Conformation indicated by circular dichroism spectrum [1] | Inhibition of recognition of EBNA by anti-P60 serum (EBNA; anti-P60 serum 1:50 incubated with 40 ug/ml polypeptide for one hour) | Inhibition of recognition of EBNA by anti-P62 serum (EBNA) | OD405 × 10^3 obtained with patient antibodies to polypeptide, average ± one standard deviation (anti-EBNA antibodies; VCA- Normals (n = 27), dilution 1:20) | Average titer of Progressive Systemic Schlerosis (PSS) patients to polypeptide compared with normals (anti-EBNA antibodies) | Reaction of VCA- sera with polypeptide (anti-EBNA antibodies) | Reactivity of sera of EBV non-immune donors to polypeptide (anti-EBNA antibodies) | Number of 91 anti-EBNA positive (ACIF) sera positive against polypeptide (anti-EBNA antibodies) | Antibodies binding to polypeptide before and after EBV-induced infectious mononucleosis (anti-EBNA antibodies) | OD405 × 10^3 obtained with patient antibodies to polypeptide (anti-EBNA antibodies; [3]) | OD405 × 10^3 obtained with patient antibodies to polypeptide (anti-EBNA antibodies; [4]) | OD405 × 10^3 obtained with patient antibodies to polypeptide (anti-EBNA antibodies; [5]) | OD405 × 10^3 obtained with patient antibodies to polypeptide (anti-EBNA antibodies; [6]) | OD405 × 10^3 obtained with patient antibodies to polypeptide (anti-EBNA antibodies; [7]) | OD405 × 10^3 obtained with patient antibodies to polypeptide (anti-EBNA antibodies; [8]) | Reaction of sera of clinically normal VCA+ individuals with polypeptide (anti-EBNA antibodies) | Time course of anti-P62 antibodies after onset of infectious mononucleosis versus ACIF anti-EBNA titer (anti-EBNA antibodies; one-half of 8 students (e.g. patient 15)) | Time of detection of antibodies against polypeptide after onset of infectious mononucleosis (anti-EBNA antibodies; other half of 8 students (e.g. patients 14 and 2)) | Number of 91 EBNA positive sera immunoreacting with polypeptide (anti-EBNA antibodies; sera at 1:320 dilution) | Inhibition of binding of anti-polypeptide P62 to solid phase polypeptide P62 [2]
1 | C[C@H](NC(=O)CNC(=O)CNC(=O)[C@H](C)NC(=O)CNC(=O)[C@H](C)NC(=O)CNC(=O)CNC(=O)CN)C(=O)NCC(=O)N[C@@H](C)C(=O)NCC(=O)NCC(=O)NCC(=O)NCC(=O)N[C@@H](CCCNC(=N)N)C(=O)O [Polypeptide P60, H--Gly--Gly--Gly--Ala--Gly--Ala--Gly--Gly--Ala--Gly--Ala--Gly--Gly--Gly--Gly--Arg--OH] (H-GGGAGAGGAGAGGGGR-OH) | very similar spectra | innibited | inhibited | 45 ± 18 OD405 × 10^3 | relatively higher average titer | None of the VCA- sera were found to react positively | None of tne sera displayed significant reactivity | 91 | absent before infection, but appeared afterward | 162 OD405 × 10^3 | 72 OD405 × 10^3 | 115 OD405 × 10^3 | 51 OD405 × 10^3 | 154 OD405 × 10^3 | 145 OD405 × 10^3 | all of the VCA+ indiviuals were positive |  |  |  | 
2 | C[C@H](N)C(=O)NCC(=O)N[C@@H](C)C(=O)NCC(=O)NCC(=O)NCC(=O)N[C@@H](C)C(=O)NCC(=O)NCC(=O)N[C@@H](C)C(=O)NCC(=O)N[C@@H](C)C(=O)NCC(=O)NCC(=O)NCC(=O)N[C@@H](C)C(=O)NCC(=O)NCC(=O)N[C@@H](C)C(=O)NCC(=O)O [Polypeptide P62, H-Ala--Gly--Ala--Gly--Gly--Gly--Ala--Gly--Gly--Ala--Gly--Ala--Gly--Gly--Gly--Ala--Gly--Gly--Ala--Gly--OH] (H-AGAGGGAGGAGAGGGAGGAG-OH) | relatively stable secondary structure |  | inhibited |  | relatively higher average titer | None of the VCA- sera were found to react positively | None of tne sera displayed significant reactivity | 91 | absent before infection, but appeared afterward | 631 OD405 × 10^3 | 77 OD405 × 10^3 | 514 OD405 × 10^3 | 13 OD405 × 10^3 | 958 OD405 × 10^3 | 819 OD405 × 10^3 | all of the VCA+ indiviuals were positive | rose in parallel with the corresponding anti-EBNA titer | detected in the first month after the onset of symptoms | 83 | 
3 | CSCC[C@H](NC(=O)[C@@H]1CCCN1C(=O)[C@H](CCCNC(=N)N)NC(=O)[C@H](CCCCN)NC(=O)[C@H](CCC(=O)O)NC(=O)CNC(=O)[C@H](CCCNC(=N)N)NC(=O)CNC(=O)[C@H](CCCNC(=N)N)NC(=O)CNC(=O)[C@H](CCCNC(=N)N)NC(=O)CNC(=O)[C@H](CCCNC(=N)N)NC(=O)[C@H](C)NC(=O)[C@@H](N)CCCNC(=N)N)C(=O)O [Polypeptide P89, H--Arg--Ala--Arg--Gly--Arg--Gly--Arg--Gly--Arg--Gly--Glu--Lys--Arg--Pro--Met--OH] (H-RARGRGRGRGEKRPM-OH) |  |  |  |  |  |  |  |  | no antibodies were produced | 25 OD405 × 10^3 | 29 OD405 × 10^3 | 23 OD405 × 10^3 | 9 OD405 × 10^3 | 23 OD405 × 10^3 | 16 OD405 × 10^3 |  |  |  |  | did not significantly crossreact; also recorded: did not inhibit

— patent publication USRE33897E, “Synthetic polypeptides and antibodies related to Epstein-Barr virus nuclear antigen” (Scripps Clinic and Research Foundation, priority 1989, dated 1992)
